From paper PMC3057995, “Potent Anti-Tumor Effect Generated by a Novel Human Papillomavirus (HPV) Antagonist Peptide Reactivating the pRb/E2F Pathway” (PLoS ONE, 2011)

Assays:
pRb [1] = test: Immunohistochemistry of tumor tissues, pRb; assay type: in vivo, mouse (Balb/C-nu/nu); details: 400 µg/mouse group vs control
Procedure: Three or two mice bearing tumor of each group were prelabeled with intra-peritoneal injection of BrdU (100 mg/kg, Sigma-Aldrich, Inc., Aaint Louis, MO, USA) 15 hours before sacrificed. Tumor specimens were then prepared as formalin-fixed, paraffin-embedded sections for hematoxylin-eosin staining, BrdU and pRb immunohistochemical staining as previously described, [57]. In brief, immunostaining was performed on formalin-fixed, paraffin-embedded sections using the anti-pRb monoclonal and anti- BrdU monoclonal antibodies, respectively. Before the application of the primary antibodies, an antigen retrieval technique was performed. […] The antibodies were detected by means of the Strept Avidin-Biotin Complex (SABC) method (Wuhan Boster Biological Technology, Ltd., Wuhan, P.R. China.) according to the manufacturer's instructions. Stained slides were examined under a Nikon ECLIPSE TE2000-U microscope (Nikon Corporation, Tokyo, Japan) and images were collected and analyzed with Pixera Penguin 600CL DiRactor™ (Pixera Corporation, Los Gatos, CA, USA). BrdU or pRb-positive cells were counted in each section. The total cell number was determined by nuclear staining with hematoxylin. At least 1000 total cells for each case were counted.

HeLa cells = test: Clonogenic assay, HeLa; assay type: cell-based; details: 16 through 160 µM, 8 days, p>0.1
Procedure: Cells were seeded in DMEM at 1×10^3 cells/well density in 12-well plates and allowed to attach to the substrate overnight. Thereafter, cells were treated with 0 µM, 16 µM, 32 µM, 80 µM, and 160 µM peptide in DMEM, and the medium was changed every three days. The plates were observed daily for colony formation. After 8 (for HeLa cells) or 14 (for SiHa and CaSki cells) days of treatment, the cultures were washed three times with PBS and stained with crystal violet in ethanol for 15 min. The colonies were then counted and photographed with the Alphalmager® EP image acquisition system (Alpha Innotech, Santa Clara, CA, USA).

CaSki cells [2] = test: MTT cell viability assay, CaSki; assay type: cell-based; details: HPV16-positive, medium replaced daily, A540, mean ± SE, at least two independent runs in sextuplicate
Procedure: Cell viability was determined with an MTT assay. Briefly, the cells were seeded into 96-well plates at a density of 4–5×10^3 cells/well. The cells were allowed to recover for 24 h before the medium was replaced with DMEM supplemented with peptides at different concentrations. The solvent of the peptides was set as the control. The peptide-supplemented medium was replaced daily and the respective concentrations were maintained. The cells were subjected to an MTT cell proliferation assay at different time points. The plates were incubated at 37°C for 3 h with the addition of 20 µl/well MTT (5 mg/ml). Untransformed MTT in the solution was removed by aspiration. The formazan product was dissolved in DMSO, and plates were shaken vigorously at room temperature for 10–15 min to ensure complete solubilization. The optical density of the formazan solutions was measured by microplate reader at 540 nm.

pRb [3] = test: pRb phosphorylation Western blot; assay type: cell-based; details: SiHa, 80 µM, 24 h
pRb [4] = test: pRb half-life measurement (cycloheximide, Western blot); assay type: cell-based; details: SiHa, 80 µM Pep-7 24 h, then 50 µg/ml cycloheximide 0 to 12 h; three experiments
Procedure: Measurements of pRb half-life were carried out.
The cells were then treated with 50 µg/ml cycloheximide for 0 to 12 h. The cell lysates collected at different time points were subjected to Western blotting assay as above. Band intensity was used to determine the proteins half-life.

cyclins A, D1, and E1 = test: qRT-PCR of tumor tissues; assay type: in vivo, mouse (Balb/C-nu/nu)
Procedure: Total RNA was extracted from the cultured cells using TRIzol reagent (Invitrogen, Carlsbad, CA,USA) according to the manufacturer's instructions. qRT-PCR was used to confirm the expression levels of mRNAs. Reverse transcription and qPCR were performed according to the protocol of Reverse Transcriptase System™ and SYBR® premix Ex Taq™ (Perfect Real Time) (TaKaRa, Dalian, P.R. China) on the ABI 7300 Real Time PCR System (Applied Biosystems, Foster City, CA, USA) supplied with analytical software. β-actin mRNA levels were used for normalization. Each sample was determined in triplicate. The results represent means ± SE from three experiment runs.

CaSki cells [5] = test: Western blot, CaSki; assay type: cell-based; details: 80 µM, 48 h
Procedure: Western blotting was carried out as described previously, [50]. […] After another 48 h of treatment, the cells were lysed in lysis buffer (Beyotime Institute of Biotechnology, Jiangshu, China) containing PMSF (Sigma Chemical Co., St. Louis, MI, USA) for 30 min at 4°C. The lysate was then centrifuged for 20 min at 13,000 rpm and 4°C. The proteins were then separated through SDS-PAGE and transferred onto the PVDF membrane (Immobion®-P Transfer Membrane, Millipore Corp., Billerica, MA, USA). Membranes were blocked in a Tris-buffered saline with 0.1% Tween-20 (TBS-T) solution with 5% nonfat dry milk and incubated overnight with primary antibodies at 4°C. The immunoreactive signals were detected by HRP-conjugated secondary antibodies (KPL, Gaithersburg, MD, USA) followed by SuperSignal® West Pico Chemiluminescent Substrate (Thermo Scientific, Milford, MA, USA.). Anti-β-actin antibodies were used to control protein loading. For the in vivo studies, tumors were harvested, and the cell lysates were prepared and transferred to a clean Eppendorf tube and centrifuged for 30 min at 14,000 rpm. The supernate was probed by western blotting, as described above.

SACPKGLDWCGG (C&C bridged by disulfide bonds) (disulfide) [Pep-7]
pRb protein level in tumor tissue (pRb [1]): increased
colony formation (HeLa cells): not influenced
cell proliferation (MTT) (CaSki cells [2]): repressed significantly by Pep-7 in a dose- and time-dependent manner
phosphorylation of pRb (pRb [3]): not affected significantly
pRb half-life (pRb [4]): significantly expanded
cyclins A, D1, and E1 RNA levels in tumor tissue (cyclins A, D1, and E1): reduced
HPV16E7 protein level (CaSki cells [5]): reduced
cyclins A, D1 and E1 protein expression (CaSki cells [5]): significantly reduced
pRb protein level (CaSki cells [5]): increased
